For experiment [1], the target named is T1, full-length MALT1 protein His-MALT1(1-824) (Homo sapiens, UniProt Q9UDY8).
T1 construct: full-length MALT1 protein His-MALT1(1-824); His (N); made in house; host or cells: baculovirus-infected insect cells
T1 sequence (Q9UDY8 1-824): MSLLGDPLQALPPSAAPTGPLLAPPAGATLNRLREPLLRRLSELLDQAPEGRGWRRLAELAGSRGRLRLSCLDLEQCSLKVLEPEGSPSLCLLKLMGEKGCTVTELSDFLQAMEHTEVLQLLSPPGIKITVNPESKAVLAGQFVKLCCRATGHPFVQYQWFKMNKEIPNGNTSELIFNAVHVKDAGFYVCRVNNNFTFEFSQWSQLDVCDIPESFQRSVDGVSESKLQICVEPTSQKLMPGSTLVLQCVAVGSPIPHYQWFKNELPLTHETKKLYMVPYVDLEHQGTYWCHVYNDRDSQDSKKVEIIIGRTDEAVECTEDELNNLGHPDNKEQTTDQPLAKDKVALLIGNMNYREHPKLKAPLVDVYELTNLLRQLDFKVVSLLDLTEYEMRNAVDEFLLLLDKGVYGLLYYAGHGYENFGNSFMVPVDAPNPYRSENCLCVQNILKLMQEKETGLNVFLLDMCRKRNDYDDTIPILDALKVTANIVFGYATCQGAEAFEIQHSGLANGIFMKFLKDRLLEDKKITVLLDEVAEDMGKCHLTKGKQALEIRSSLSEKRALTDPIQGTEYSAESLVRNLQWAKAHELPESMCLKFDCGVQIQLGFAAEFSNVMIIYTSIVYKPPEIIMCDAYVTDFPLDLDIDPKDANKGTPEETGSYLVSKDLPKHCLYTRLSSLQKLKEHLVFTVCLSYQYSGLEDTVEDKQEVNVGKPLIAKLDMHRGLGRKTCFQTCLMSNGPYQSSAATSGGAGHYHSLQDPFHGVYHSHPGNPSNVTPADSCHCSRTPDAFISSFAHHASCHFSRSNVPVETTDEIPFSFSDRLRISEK
Description: MALT1 protease assay, Assay 1 (2 nM MALT1, Ac-LRSR-AMC substrate). It counts as biochemical. The following applies: 2 nM MALT1, 50 μM Ac-LRSR-AMC, 2 h pre-incubation, 8 hr incubation at RT. Here is the method:
MALT1 protease activity was assessed in an in vitro assay using a tetrapeptide as substrate and full-length MALT1 protein His-MALT1(1-824) purified from baculovirus-infected insect cells. The tetrapeptide substrate is Ac-LRSR-AMC (SM Biochemicals) with Km measured at around 100 μM.
The final assay buffer includes 1 nM (Assay 2) or 2 nM (Assay 1) of MALT1 full-length protein, 50 μM Ac-LRSR-AMC substrate, 50 mM Tris pH 7.5, 600 mM Sodium Citrate, 1 mM DTT, 1 mM EDTA, and 0.05% BSA in 384-well plate format using black microtiter square well plates (Optiplate 384-F, Perkin Elmer).
Test compounds were dissolved in 100% DMSO at stock of 10 mM, with final DMSO concentration 0.1%. Test compounds were pre-incubated with MALT1 protein for 2 h at room temperature. Substrate was added after the pre-incubation and fluorescence signal was measured using Envision at excitation 355 nm and emission 460 nm after 8 hr incubation at RT. Increase in the assay signal was linear over this period and proportional with increase in the enzyme content.
The fluorescence units were transformed to percentage of remaining activity by using the high control (HC, median of fluorescence signal from wells containing MALT1 protein, substrate, and DMSO) and low control (LC, median of fluorescence signal from wells with substrate only) with the formula below: […]
IC50 and Hill coefficients were obtained using Graph Pad Prism (Graph Pad software, Inc, USA) with non-linear regression analysis.

Experiment [2] concerns IL10 secretion in OCI-LY10 cells. Description: Human IL10 secretion assay, Assay 1 (HTRF). The format is cell-based. The following applies: 24 h incubation, read-out: IL-10 Secretion IC50 [nM] Assay 1. The method, then: (§1) IL10 is one of the cytokines that are regulated via activation of NF-kB signaling. For example, in ABC-DLBCL cell lines, the activated NF-kB signaling leads to increased IL10 secretion. Inhibition of NF-kB signaling has been shown leading to decreased IL10 secretion.
Assay 1: OCI-LY10 cells were seeded in IMEM supplemented with 20% fetal bovine serum at 3×10^5 cells per well in 96-well round bottom plates (Corning 3799, Corning), treated with 100 nL of 3-fold serial compound dilutions, starting at 10 mM. The final vehicle concentration was 0.1% DMSO in all wells. After 24 h incubation, the cells were transferred to 96-PCR plates (Axygen: PCR-96-FLT-C) and centrifuged, then 16 μL of cell culture media was transferred to HTRF plates and IL10 levels were measured using human IL-10 Assay Kits (Cisbio) using HTRF format. The signals were transformed to percentage of remaining activity by using the high control (HC, median of signal from wells containing cells treated with DMSO) and low control (LC, median of signal from wells with no cells). IC50 values (nM) were determined using 4-parametric curve-fitting and Hill coefficient obtained using Graph Pad Prism (Graph Pad software, Inc, USA) with non-linear regression analysis.

For experiment [3] the test system is unchanged. Description: Human IL10 secretion assay, Assay 2 (MSD). It counts as cell-based. The following applies: Homo sapiens, 24 h incubation, Meso Scale Discovery, read-out: IL-10 Secretion IC50 [nM] Assay 2. The method, then: as §1
Assay 2: OCI-LY10 cells were seeded in IMEM supplemented with 20% fetal bovine serum at 4.8×10^5 cells per 160 μL per well in 96-well V-bottom cell culture plates (corning, 3894), treated with 120 nL of 3-fold serial compound dilutions, starting at 4 mM. The final vehicle concentration was 0.075% DMSO in all wells. After a 24 h incubation, human IL-10 precoated plates (Meso Scale Discovery) were washed 3 times with PBST, and 50 μL culture medium was aspirated into the MSD plate and incubated at 4° C. overnight. The supernatant was then discarded, and the wells were washed 3 times with PB ST. SULFO-TAG Anti-human IL-10 Antibody (50×) was diluted 50-fold according to the Meso Scale Protocol, then 25 μL of SULFO-TAG Anti-human IL-10 Antibody (1×) was added. After 2 h of incubation at RT, the supernatant was discarded, and the well was washed 3 times with PBST. 2×read buffer was added and the signal was read on an MSD Sector S600. The effect of a particular compound on IL10 secretion is shown relative to the effect of DMSO; set as 100%. IC50 values (nM) were determined using 4-parametric curve-fitting.

The target of experiment [4] is T1, full-length MALT1 protein His-MALT1(1-824). Briefly: MALT1 protease assay, Assay 2 (1 nM MALT1, Ac-LRSR-AMC substrate). It counts as biochemical. Particulars: 1 nM MALT1, 50 μM Ac-LRSR-AMC, 2 h pre-incubation, 8 hr incubation at RT. The gist of the method: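 Compounds (0.1% DMSO final) sat 2 h at RT with insect-cell-expressed His-MALT1(1-824), in 50 mM Tris pH 7.5, 600 mM sodium citrate, 1 mM DTT, 1 mM EDTA, 0.05% BSA. Cleavage of 50 μM Ac-LRSR-AMC (Km ~100 μM) ran 8 h at RT, read as AMC fluorescence. IC50 and Hill coefficient fitted to % remaining activity.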

A value given as a limit tells only on which side of the number the result lay.

In the case of `CC1(C)CC(C(=O)Nc2cnc(-n3nccn3)c(Cl)c2)c2cnc3cc(F)nn3c21` (single isomer, unassigned) [Example 33, N-(5-chloro-6-(2H-1,2,3-triazol-2-yl)pyridin-3-yl)-2-fluoro-8,8-dimethyl-7,8-dihydro-6H-cyclopenta[e]pyrazolo[1,5-a]pyrimidine-6-carboxamide], the figures for the IC50 in experiment [1] and in experiment [2] were below 10 nM and 10 to 100 nM, respectively.

For `O=C(Nc1cnc(-n2nccn2)c(Cl)c1)C1CC2(CC2)c2c1cnc1cc(F)nn21` (single isomer, unassigned) [Example 95, N-(5-chloro-6-(2H-1,2,3-triazol-2-yl)pyridin-3-yl)-2-fluoro-6,7-dihydrospiro[cyclopenta[e]pyrazolo[1,5-a]pyrimidine-8,1′-cyclopropane]-6-carboxamide], the values for the IC50 in experiment [3] and in experiment [4] were 100 to 1000 nM and 10 to 100 nM, respectively.

Take `CC1(C)CC(C(=O)Nc2cnc(-c3nnn(CCO)n3)c(Cl)c2)c2cnc3cc(Cl)nn3c21` (centres unmarked) [Example 123, 2-chloro-N-(5-chloro-6-(2-(2-hydroxyethyl)-2H-tetrazol-5-yl)pyridin-3-yl)-8,8-dimethyl-7,8-dihydro-6H-cyclopenta[e]pyrazolo[1,5-a]pyrimidine-6-carboxamide]: the IC50 (in general, the concentration that inhibits the measured activity by half) in experiment [3] is at least 1000 nM; in experiment [4] it was 10 to 100 nM.

As to `CC1(C)CC(C(=O)Nc2cnc(OC(F)F)c(C#N)c2)c2cnc3cc(Cl)nn3c21` (single isomer, unassigned) [Example 79, 2-chloro-N-(5-cyano-6-(difluoromethoxy)pyridin-3-yl)-8,8-dimethyl-7,8-dihydro-6H-cyclopenta[e]pyrazolo[1,5-a]pyrimidine-6-carboxamide], the IC50 in experiment [3] is 10 to 100 nM; in experiment [4] it was below 10 nM.

Take `C[C@@H](O)c1cnn(-c2ncc(NC(=O)[C@H]3CC(C)(C)c4c3cnc3cc(Cl)nn43)cc2Cl)n1` (single isomer, unassigned) [Example 51, 2-chloro-N-(5-chloro-6-(4-(1-hydroxyethyl)-2H-1,2,3-triazol-2-yl)pyridin-3-yl)-8,8-dimethyl-7,8-dihydro-6H-cyclopenta[e]pyrazolo[1,5-a]pyrimidine-6-carboxamide]: the IC50 in experiment [3] was 100 to 1000 nM; in experiment [4], below 10 nM.

Take `CC1(C)CC(C(=O)Nc2cnc(OC3CC3)c(Cl)c2)c2cnc3cc(Cl)nn3c21` (single isomer, unassigned) [Example 75, 2-chloro-N-(5-chloro-6-cyclopropoxypyridin-3-yl)-8,8-dimethyl-7,8-dihydro-6H-cyclopenta[e]pyrazolo[1,5-a]pyrimidine-6-carboxamide]: the figures for the IC50 in experiment [3] and in experiment [4] were 100 to 1000 nM and 10 to 100 nM, respectively.

`N#Cc1cc(NC(=O)C2CC3(CCC3)c3c2cnc2cc(F)nn32)cnc1OC(F)F` (single isomer, unassigned) [Example 103, N-(5-cyano-6-(difluoromethoxy)pyridin-3-yl)-2′-fluoro-6′,7′-dihydrospiro[cyclobutane-1,8′-cyclopenta[e]pyrazolo[1,5-a]pyrimidine]-6′-carboxamide]: the IC50 in experiment [3] is 100 to 1000 nM; in experiment [4], below 10 nM.

As to `O=C(Nc1cnc(-n2nccn2)c(Cl)c1)[C@H]1CC2(CCC2)c2c1cnc1cc(F)nn21` (single isomer, unassigned) [Example 108, N-(5-chloro-6-(2H-1,2,3-triazol-2-yl)pyridin-3-yl)-2′-fluoro-6′,7′-dihydrospiro[cyclobutane-1,8′-cyclopenta[e]pyrazolo[1,5-a]pyrimidine]-6′-carboxamide], the IC50 is 100 to 1000 nM in experiment [3] and below 10 nM in experiment [4].

`C[C@@]1(C(F)(F)F)C[C@H](C(=O)Nc2cnc(-n3nccn3)c(C(F)(F)F)c2)c2cnc3cc(Cl)nn3c21` (single isomer, unassigned) [Example 54, N-(6-(2H-1,2,3-triazol-2-yl)-5˜(trifluoromethyl)pyridin-3-yl)-2-chloro-8-methyl-8-(trifluoromethyl)-7,8-dihydro-6H-cyclopenta[e]pyrazolo[1,5-a]pyrimidine-6-carboxamide]: the IC50 in experiment [3] was 100 to 1000 nM; in experiment [4] it was below 10 nM.

For `C[C@H](O)c1cnn(-c2ncc(NC(=O)[C@H]3CC4(CCC4)c4c3cnc3cc(Cl)nn43)cc2Cl)n1` (single isomer, unassigned) [Example 158], the IC50 in experiment [3] is 100 to 1000 nM; in experiment [4], 10 to 100 nM.

For `CC1(C)CC(C(=O)Nc2cnc(-n3nccn3)c(C(F)(F)F)c2)c2cnn3cc(Cl)nc3c21` (single isomer, unassigned) [Example 193, N-(6-(2H-1,2,3-triazol-2-yl)-5-(trifluoromethyl)pyridin-3-yl)-2-chloro-9,9-dimethyl-8,9-dihydro-7H-cyclopenta[d]imidazo[1,2-b]pyridazine-7-carboxamide], the results for the IC50 in experiment [3] and in experiment [4] were 10 to 100 nM and below 10 nM, respectively.

For `O=C(Nc1cnc(-n2nccn2)c(Cl)c1)C1CC2(CC2)c2c1cnc1cc(Cl)nn21` (single isomer, unassigned) [Example 97, 2-chloro-N-(5-chloro-6-(2H-1,2,3-triazol-2-yl)pyridin-3-yl)-6,7-dihydrospiro[cyclopenta[e]pyrazolo[1,5-a]pyrimidine-8,1′-cyclopropane]-6-carboxamide], the IC50 in experiment [3] fell in the range of 100 to 1000 nM; in experiment [4], 10 to 100 nM.

For the compound `C[C@@H](O)c1cnn(-c2ncc(NC(=O)[C@H]3CC4(CCC4)c4c3cnc3cc(Cl)nn43)cc2Cl)n1` (single isomer, unassigned) [Example 160], the IC50 in experiment [3] was 10 to 100 nM; in experiment [4], below 10 nM.
